Results published in ChEMBL document CHEMBL1914361, “Shishicrellastatins, inhibitors of cathepsin B, from the marine sponge Crella (Yvesia) spinulata” (Bioorg Med Chem, 2011).

Target: Cathepsin B (Bos taurus, UniProt P07688)
Assay: Inhibition of bovine cathepsin B after 1 hr by fluorescence assay

IC50 [µM] | Structure (SMILES)
6.79 | C[C@H]([C@@H]1C[C@H]2C[C@](C)(OC2(C)C)[C@@H](CC[C@@H](C)[C@H]2CC[C@H]3C4=C(CC[C@]23C)[C@@]2(C)C[C@H](OS(=O)(=O)O)[C@@H](OS(=O)(=O)O)[C@H](C)C2=CC4)O1)[C@H]1CC[C@H]2C3=C(CC[C@]12C)[C@]12CC[C@](O)(OC1)[C@@H](C)[C@@H]2[C@@H](OS(=O)(=O)O)C3 [SHISHICRELLASTATIN A]
6.81 | C[C@H]([C@@H]1C[C@H]2C[C@](C)(OC2(C)C)[C@@H](CC[C@@H](C)[C@H]2CC=C3C4=C(CC[C@@]32C)[C@@]2(C)C[C@H](OS(=O)(=O)O)[C@@H](OS(=O)(=O)O)[C@H](C)C2=CC4)O1)[C@H]1CC[C@H]2C3=C(CC[C@]12C)[C@]12CC[C@](O)(OC1)[C@@H](C)[C@@H]2[C@@H](OS(=O)(=O)O)C3 [SHISHICRELLASTATIN B]
